According to patent US10781224B2, “Bis(oxymethyl)phosphinic acid and biogenic metal salts thereof as regulators of plant growth and development” (priority 2016, dated 2020):

Key:
Type in all cases: in vivo
[1] = tested on: spring wheat (Ekada-66 variety); experiment: Spring wheat seed treatment: germination rate and plant height (laboratory, Petri dishes); conditions: for Germination rate % 4th day / Germination rate % 8th day / Plant height: spring wheat
Experimental: (§1) Control—Soaking Seeds in Water;
(§2) Experimental versions—soaking seeds in BHMPA solutions and solutions of BHMPA Ca, Mg, Na, Co, Mn, Cu, and Zn salts at 1·10^−6-1·10^−12% concentrations (doses). The studies were conducted in laboratory in Petri dishes; seed bed—two layers of filter paper. 50 seeds soaked in water (control) and in the solutions of the tested compounds (experimental) were placed into each dish. Wheat, corn, and rice seeds were exposed for one hour.
(§3) Analysis was conducted according to the government standards GOST 12038-84 “Crop seeds. Technical conditions for determining the germination energy and germination rate”, GOST 12044-93 “Crop seeds. Methods for determining disease contamination.”
(§4) Seed germination energy and rate were calculated in percent as an arithmetic mean of the four experimental results (germination energy on the 4th day, wheat germination on the 8th day, rice and corn germination—on the 7th day). Germination was determined based on the germinating power indicators (length of the roots and sprouts and their wet and dry mass per 100 shoots).
(§5) The study of the effect of pre-sowing seed treatment with BHMPA was conducted on winter wheat (Kazan-500 variety) and spring wheat (Ekada-66 variety).

[2] = tested on: winter wheat (Kazan-500 variety); experiment: Winter wheat seed treatment with BHMPA: germination energy, germination rate, plant height, roots
Experimental: as §1, §2, §3, §4, §5

[3] = tested on: spring wheat seeds: contamination by mold, alternaria, bacteriosis; experiment: Phytopathological properties (seed contamination) of treated spring wheat seeds
Experimental: as §2, §3, §5
The effect of the treatment with BHMPA on phytopathological properties of spring wheat seeds was examined and the results are presented in Table II. […] The biological activity in this case was 64.4%. In other samples, contamination of the seeds also remained lower than that of the control. Treatment of seeds with BHMPA solutions reduced their overall contamination.

[4] = tested on: corn (Krasnodar 385 MV variety); experiment: Corn seed treatment with BHMPA salts: germinating power; conditions: corn seeds; solution concentration 1 · 10^−7%
Experimental: as §2, §4
(§6) The effect of pre-sowing seed treatment with the claimed BHMPA salts of biogenic metals was studied on winter wheat (Vershin variety), corn (Krasnodar 385 MV variety), and rice (Diamant variety).
(§7) The above data describe the seed viability only at the initial stage of germination, while the germination ability at the later stage of germination is defined by the initial germinating power. The method for the determination of the germinating power comprises measuring the height of the sprouts and primary roots, as well as the biomass and the dry mass thereof per 100 seedlings. [M. A. Kartuzova. Initial Germinating Power as Method of Biological Assessment of Seed Quality. Selection and Seed Farming, #2, 1953].

[5] = tested on: winter wheat (Vershin variety); experiment: Winter wheat seed treatment with BHMPA salts: germination energy and germination rate; conditions: winter wheat; comparative study vs Melaphen; 1·10^−7% solution
Experimental: as §1, §2, §3, §4, §6

rice (Diamant variety) [6] = experiment: Rice seed treatment with BHMPA salts: germination energy and germination rate
Experimental: as §1, §2, §3, §4, §6

rice (Diamant variety) [7] = experiment: Rice seed treatment with BHMPA salts: germinating power; conditions: rice seed treatment, comparison with Melaphen (Table XXXIII), solution 1 · 10^−8%
Experimental: as §2, §4, §6, §7

[8] = tested on: winter wheat (Vershin variety); experiment: Winter wheat seed treatment with BHMPA salts: germinating power (length and mass of roots and sprouts); conditions: comparative study, 1·10^−7% solution
Experimental: as §2, §4, §6, §7

[9] = tested on: corn (Krasnodar 385 MV variety); experiment: Corn seed treatment with BHMPA salts: germination energy and germination rate; conditions: comparative study vs Melaphen, 1·10^−7% solution
Experimental: as §1, §2, §3, §4, §6

[10] = tested on: winter wheat (Kazan 560 variety); experiment: Field study: winter wheat seed treatment and spraying, yield and quality of the grain; conditions: for Field germination, % / Grain mass from the main ear / Number of grains in an ear / Viability, % / Yield, dt/ha: winter wheat
Experimental: Field studies were conducted for the BHMPA Mg-salt. The effect of treatment winter wheat seeds (Kazan 560 variety) with BHMPA Mg-salt solutions on the yield and quality of the grain was examined. The field experiment was conducted at a branch of a fallow rotation. The seeds were sowed on Sep. 1, 2015, in an area covering 1.7 hectares of the experimental field located at the experimental base of Tatarstan Research Institute of Agriculture. For comparison, the seeds were treated with the BHMPA Mg-salt solution and the known growth-regulator Melaphen at the same concentrations, optimum for Melaphen.
The experiment was conducted for the following variants: • 1. Control (no seed treatment); • 2. Seed treatment with the BHMPA Mg-salt solution at a 1·10^−7% concentration; • 3. Seed treatment with the BHMPA Mg-salt solution at a 1·10^−7% concentration+spraying with the BHMPA Mg-salt solution at a 1·10^−8% concentration upon vegetation during spring tillering and earing phases; • 4. Seed treatment with the growth regulator Melaphen at a 1·10^−7% concentration; • 5. Seed treatment with Melaphen at a 1·10^−7% concentration and spraying with Melaphen at a 1·10^−8% concentration upon vegetation during spring tillering and earing phases.
The seeds were treated with the experimental compounds together with a seed disinfectant at a rate of 10 ml/T. The vegetating plants were treated at a rate of 5 ml/ha. Identical field operations appropriate for that zone as well as plant protection measures against weeds and disease, were applied in all cases.
Results of field experiments with BHMPA Mg-salt as the main growth-regulating component of said pre-sowing seed treatment combined with additional treatment of winter wheat plants with other claimed BHMPA salts, are presented in Table XXXV.

[11] = rice seed treatment, solution 1 · 10^−8%
[12] = rice, comparative study vs Melaphen, 1·10^−8% solution
[13] = seed treatment 1 · 10^−7% + spraying plants with the same substance 1 · 10^−8%

## O=P(O)(CO)CO [BHMPA, bis-(hydroxymethyl)-phosphinic acid]
[1]; 1·10^−7% solution
  Germination rate % 4th day: 28.0%
  Germination rate % 8th day: 70.0%
  Plant height: 14.1 cm
[1]; 1·10^−9% solution
  Germination rate % 4th day: 33.0%
  Germination rate % 8th day: 81.5%
  Plant height: 14.3 cm
[1]; 1·10^−12% solution
  Germination rate % 4th day: 32.5%
  Germination rate % 8th day: 81.3%
  Plant height: 14.4 cm
[1]; wheat, Tables I-III, 1·10^−9%, 1·10^−11% and 1·10^−12%
  growth-regulating ability compared with Melaphen: lesser impact than that of the prototype Melaphen
[2]; 1·10^−7% solution
  Germination energy: 82.5%
  Germination rate: 84.0%
  Number of roots: 3.3
  Plant height: 11.3 cm
  Root length: 11.7 cm
[2]; 1·10^−8% solution
  Germination energy: 86.0%
  Germination rate: 86.0%
  Number of roots: 3.1
  Plant height: 12.5 cm
  Root length: 12.1 cm
[2]; 1·10^−9% solution
  Germination energy: 87.4%
  Germination rate: 96.0%
  Number of roots: 3.4
  Plant height: 13.6 cm
  Root length: 12.3 cm
[2]; 1·10^−10% solution
  Germination energy: 85.7%
  Germination rate: 90.0%
  Number of roots: 3.2
  Plant height: 11.2 cm
  Root length: 11.5 cm
[2]; 1·10^−11% solution
  Germination energy: 83.9%
  Germination rate: 92.0%
  Number of roots: 3.3
  Plant height: 12.4 cm
  Root length: 11.3 cm
[2]; 1·10^−12% solution
  Germination energy: 90.0%
  Germination rate: 95.0%
  Number of roots: 3.3
  Plant height: 14.1 cm
  Root length: 11.9 cm
[3]; 1·10^−7% solution
  Biological efficacy: 44.1%
  Contamination by type: alternaria: 24%
  Contamination by type: bacteriosis: 6%
  Contamination by type: mold: 3%
  Overall contamination: 33.0%
[3]; 1·10^−8% solution
  Biological efficacy: 42.4%
  Contamination by type: alternaria: 26%
  Contamination by type: bacteriosis: 6%
  Contamination by type: mold: 2%
  Overall contamination: 34.0%
[3]; 1·10^−9% solution
  Biological efficacy: 64.4%
  Contamination by type: alternaria: 14%
  Contamination by type: bacteriosis: 4%
  Contamination by type: mold: 3%
  Overall contamination: 21.5%
[3]; 1·10^−9% solution, control 59%
  overall seed contamination lower than that of the control by: 38%
[3]; 1·10^−9% solution, listed as bis-(hydroxymethyl)-phosphinic acid
  Overall contamination: 21.0%
[3]; 1·10^−10% solution
  Biological efficacy: 61.0%
  Contamination by type: alternaria: 16%
  Contamination by type: bacteriosis: 4%
  Contamination by type: mold: 3%
  Overall contamination: 23.0%
[3]; 1·10^−11% solution
  Biological efficacy: 22.0%
  Contamination by type: alternaria: 42%
  Contamination by type: bacteriosis: 2%
  Contamination by type: mold: 2%
  Overall contamination: 46.0%
[3]; 1·10^−12% solution
  Biological efficacy: 44.1%
  Contamination by type: alternaria: 28%
  Contamination by type: bacteriosis: 3%
  Contamination by type: mold: 2%
  Overall contamination: 33.0%

## Nc1nc(N)nc(N)n1.O=P(O)(CO)CO [Melaphen, melamine salt of BHMPA, reference compound]
[1]; 1·10^−7% solution
  Germination rate % 4th day: 54.0%
  Germination rate % 8th day: 82.0%
  Plant height: 14.8 cm
[1]; 1·10^−9% solution
  Germination rate % 4th day: 52.0%
  Germination rate % 8th day: 81.0%
  Plant height: 14.5 cm
[4]
  Length, root: 8.4 cm
  Length, root, + % to control: 42%
  Length, sprout: 4.3 cm
  Length, sprout, + % to control: 59%
  Mass, dry, root: 2.42 g/100 plantlings
  Mass, dry, root, + % to control: 37.5%
  Mass, dry, sprout: 1.86 g/100 plantlings
  Mass, dry, sprout, + % to control: 37%
  Mass, wet, root: 12.02 g/100 plantlings
  Mass, wet, root, + % to control: 37%
  Mass, wet, sprout: 10.23 g/100 plantlings
  Mass, wet, sprout, + % to control: 44%
[5]
  Germination energy: 95.0%
  Germination rate: 98.3%
Rice (Diamant variety) [6]; [11]
  Germination energy, %: 89.5%
  Germination rate, %: 96.3%
Rice (Diamant variety) [6]; [12]
  Germination energy: 89.5%
  Germination rate: 96.3%
Rice (Diamant variety) [7]
  Length, root: 7.6 cm
  Length, root, + % to control: 58%
  Length, sprout: 4.9 cm
  Length, sprout, + % to control: 88%
  Mass, dry, root: 0.29 g/100 plantlings
  Mass, dry, root, + % to control: 38%
  Mass, dry, sprout: 0.35 g/100 plantlings
  Mass, dry, sprout, + % to control: 40%
  Mass, wet, root: 1.57 g/100 plantlings
  Mass, wet, root, + % to control: 60%
  Mass, wet, sprout: 2.62 g/100 plantlings
  Mass, wet, sprout, + % to control: 73.5%
[8]
  Length, root: 10.3 cm
  Length, root, + % to control: 18%
  Length, sprout: 7.3 cm
  Length, sprout, + % to control: 18%
  Mass, dry, root: 0.72 g/100 plantlings
  Mass, dry, root, + % to control: 16%
  Mass, dry, sprout: 0.59 g/100 plantlings
  Mass, dry, sprout, + % to control: 16%
  Mass, wet, root: 6.02 g/100 plantlings
  Mass, wet, root, + % to control: 66%
  Mass, wet, sprout: 5.27 g/100 plantlings
  Mass, wet, sprout, + % to control: 33%
[9]
  Germination energy: 90.7%
  Germination rate: 97.7%
[10]; field, seeds treated at 1·10^−7% and plants sprayed with 1·10^−8%, control 21.7 dt/ha
  yield of winter wheat: 29.3 dt/ha
[10]; seed treatment 1 · 10^−7%
  Field germination, %: 71%
  Grain mass from the main ear: 1.0 g
  Number of grains in an ear: 27
  Viability, %: 74%
  Yield, dt/ha: 28.0 dt/ha
[10]; [13]
  Field germination, %: 71%
  Grain mass from the main ear: 1.2 g
  Number of grains in an ear: 30
  Viability, %: 62%
  Yield, dt/ha: 29.3 dt/ha
